Patent US20200377958A1, “BIOMARKERS AND METHODS FOR TREATMENT WITH NAE INHIBITORS” (Millennium Pharmaceuticals, Inc., priority 2017, published 2020)
Read-outs that look alike come from different tables or passages of the source.

Experiments:
[1] = test system: older unfit patients with increased marrow blasts (>30%); conditions: cited from earlier work
patients with AML = patients with AML on the Austrian AZA registry; cited from earlier work
AML cells = conditions: cited from earlier work; for combination effect on viability: Combination Index and Blending Synergy Analysis
[2] = single-agent PEV, cited from earlier work
[3] = test system: patients with relapsed/refractory AML and MDS; conditions: single-agent PEV, cited from earlier work
[4] = Phase 1b clinical study (NCT01814826): plasma PK of PEV in combination with AZA; format: in vivo, human; conditions: for Cmax / half-life / Tmax: human; for Cmax / half-life / Tmax / AUC24 / AUC48: plasma; for Cmax / AUC24 / AUC48: geometric mean; for half-life: mean; for Tmax: median
Description: Serial blood samples for the determination of PEV concentrations were obtained during the first cycle of treatment, at pre-specified time points before and up to 48 hours after the start of the infusion on days 1 and 5.

[5] = AZA-AML-001, randomized AZA or CCR
[6] = intravenous, dose escalation, 20 mg/m^2 cohort (N = 6), cycle 1, day 1
[7] = intravenous, dose escalation, 20 mg/m^2 cohort (N = 6), cycle 1, day 5
[8] = intravenous, dose escalation, 30 mg/m^2 cohort (N = 3), cycle 1, day 1
[9] = iv, MTD expansion, IV AZA cohort (N = 26), cycle 1, day 1
[10] = iv, MTD expansion, IV AZA cohort (N = 26), cycle 1, day 5
[11] = sc, MTD expansion, SC AZA cohort (N = 28), cycle 1, day 1
[12] = sc, MTD expansion, SC AZA cohort (N = 28), cycle 1, day 5
[13] = dose escalation, 20 mg/m^2 cohort (N = 6), cycle 1, day 1
[14] = dose escalation, 20 mg/m^2 cohort (N = 6), cycle 1, day 5
[15] = dose escalation, 30 mg/m^2 cohort (N = 3), cycle 1, day 1

Nc1ncn([C@@H]2O[C@H](CO)[C@@H](O)[C@H]2O)c(=O)n1 [AZA, azacitidine]
1-year survival [1, 5]: 46.5% | median OS [1, 5]: 10.4 months | response rates [1, 5]: 27.8% | composite CR/PR rate ([1]; patients randomized to AZA alone, large randomized French study (ref 6)): 29% | median OS (patients with AML): ~10 months

NS(=O)(=O)OC[C@@H]1C[C@@H](n2ccc3c(N[C@H]4CCc5ccccc54)ncnc32)C[C@@H]1O [PEV, ((1S,2S,4R)-4-{4-[(1S)-2,3-dihydro-1H-inden-1-ylamino]-7H-pyrrolo[2,3-d]pyrimidin-7-yl}-2-hydroxycyclopentyl)methyl sulfamate]
DNA damage and cell death (AML cells; PEV combined with AZA compared with either agent alone, immunoblotting and flow cytometry): significantly increased DNA damage and cell death | combination effect on viability (AML cells; PEV with AZA): synergistically lethal | combination effect on viability (AML cells; PEV with decitabine): synergistically lethal | DLTs at starting dose (PEV 20 mg/m^2 (n=6) with AZA, dose escalation): absence of DLTs | final posterior estimate of probability of toxicity (PEV 20 mg/m^2, CRM model): 24% | DLTs in the MTD expansion cohort (PEV 20 mg/m^2 with AZA (n=55), grade ≥3 transaminase elevation): two additional patients experienced DLTs | patients who experienced a DLT (PEV 30 mg/m^2 dose level (n=3) with AZA, grade 2 bilirubin elevation, grade 4 AST elevation): two of the three | MTD for PEV (combined with AZA in standard doses, IV days 1, 3, 5 of 28-day cycles): 20 mg/m^2 | maximum tolerated dose (MTD) ([2]; schedule A: 1-hour IV infusion days 1, 3, 5 every 21 days): 59 mg/m^2 | dose-limiting toxicity ([2]; schedule A): elevation of alanine aminotransferase (ALT)/aspartate aminotransferase (AST) | maximum tolerated dose (MTD) ([2]; schedule B: days 1, 4, 8, 11 every 21 days): 83 mg/m^2 | dose-limiting toxicity ([2]; schedule B): Multi-organ failure (MOF) | Overall response rate (ORR) ([3]; schedule A, patients treated at or below the MTD (4/23)): 17% | Overall response rate (ORR) ([3]; schedule B, patients treated at or below the MTD (2/19)): 10% | observed accumulation ratio Rac ([4]; day 5 versus day 1, five days of continuous dosing with AZA): ~1 | Cmax [4, 6]: 0.158 µg/mL | half-life [4, 6]: 7.8 h | Tmax [4, 6]: 1.06 h | Cmax [4, 7]: 0.165 µg/mL | half-life [4, 7]: 7.98 h | Tmax [4, 7]: 0.99 h | Cmax [4, 8]: 0.299 µg/mL | half-life [4, 8]: 7.39 h | Tmax [4, 8]: 0.98 h | Cmax [4, 9]: 0.155 µg/mL | half-life [4, 9]: 7.45 h | Tmax [4, 9]: 1.01 h | Cmax [4, 10]: 0.164 µg/mL | half-life [4, 10]: 8.07 h | Tmax [4, 10]: 1 h | Cmax [4, 11]: 0.152 µg/mL | half-life [4, 11]: 7.3 h | Tmax [4, 11]: 1 h | Cmax [4, 12]: 0.148 µg/mL | half-life [4, 12]: 7.89 h | Tmax [4, 12]: 0.98 h | AUC24 ([4]; MTD expansion, IV AZA cohort (N = 26), cycle 1, day 1): 0.861 µg·h/mL | AUC24 ([4]; MTD expansion, IV AZA cohort (N = 26), cycle 1, day 5): 0.921 µg·h/mL | AUC48 ([4]; MTD expansion, IV AZA cohort, N = 12, cycle 1, day 1): 0.976 µg·h/mL | AUC48 ([4]; MTD expansion, IV AZA cohort, N = 13, cycle 1, day 5): 1.1 µg·h/mL | AUC24 ([4]; MTD expansion, SC AZA cohort (N = 28), cycle 1, day 1): 0.89 µg·h/mL | AUC24 ([4]; MTD expansion, SC AZA cohort (N = 28), cycle 1, day 5): 0.926 µg·h/mL | AUC48 ([4]; MTD expansion, SC AZA cohort, N = 11, cycle 1, day 1): 1 µg·h/mL | AUC48 ([4]; MTD expansion, SC AZA cohort, N = 18, cycle 1, day 5): 1.1 µg·h/mL | AUC24 [4, 13]: 0.99 µg·h/mL | AUC48 [4, 13]: 1.11 µg·h/mL | AUC24 [4, 14]: 0.986 µg·h/mL | AUC48 [4, 14]: 1.09 µg·h/mL | AUC24 [4, 15]: 1.64 µg·h/mL | AUC48 [4, 15]: 1.77 µg·h/mL | PEV PK in the presence of AZA compared with historical single-agent data ([4]; systemic exposure): not altered
